The structures appear in SMILES notation.

Holding throughout (experiment): Cysteine reactivity ABPP
Assay type in all cases: binding

Assay [1] has as its target T1, ACAT1 Acetyl-CoA acetyltransferase, mitochondrial C119 (P24752) (Homo sapiens, UniProt P24752).
T1 construct: endogenous in cells; host or cells: primary human T cells
T1 sequence (P24752 34-427): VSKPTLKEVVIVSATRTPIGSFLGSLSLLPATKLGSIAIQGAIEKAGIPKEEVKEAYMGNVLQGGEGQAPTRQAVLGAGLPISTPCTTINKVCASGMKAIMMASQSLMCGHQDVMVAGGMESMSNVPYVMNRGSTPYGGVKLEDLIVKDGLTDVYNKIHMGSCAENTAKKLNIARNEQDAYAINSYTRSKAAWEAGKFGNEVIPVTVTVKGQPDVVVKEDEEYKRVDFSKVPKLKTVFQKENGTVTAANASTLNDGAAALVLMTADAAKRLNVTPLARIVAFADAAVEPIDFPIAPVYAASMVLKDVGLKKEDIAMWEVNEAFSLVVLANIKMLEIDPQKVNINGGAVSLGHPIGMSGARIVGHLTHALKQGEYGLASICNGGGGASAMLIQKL
As to the method: (§1) Activated or expanded primary human T cells were re-suspended in RPMI (1×10^6 cells/mL) containing 10% fetal bovine serum (FBS), penicillin (100 U/mL), streptomycin ([…]), and L-glutamine (2 mM). The cells were treated with DMSO or compounds for 3 h, pelleted (524 g, 5 min), washed with PBS, and lysed by sonication (2×8 pulses). Soluble and particulate proteomic fractions were separated by ultracentrifugation (100,000 g, 45 min), and protein concentration was normalized to 1.7 mg/mL using a standard DC protein assay (Bio-Rad). The resulting proteomes were analyzed by competitive isotopic Tandem Orthogonal Proteolysis Activity-Based Protein Profiling (isoTOP-ABPP).
(§2) The heavy/light isoTOP-ABPP ratios (R values) for each unique peptide (DMSO/compound treated) were quantified with in-house CIMAGE software (Weerapana et al., 2010) using default parameters (3 MS1 acquisitions per peak and signal to noise threshold set to 2.5). Site-specific engagement of cysteine residues was assessed by blockade of IA-alkyne probe labeling. […] Ratios for unique peptide sequences were calculated for each experiment; overlapping peptides with the same modified cysteine (e.g., different charge states, elution times or tryptic termini) were grouped together and the median ratio was reported as the final ratio (R). Additionally, ratios for peptide sequences containing multiple cysteines were grouped together. When aggregating data across experimental replicates, the mean of each experimental median R was reported. The peptide ratios reported by CIMAGE were further filtered to ensure the removal or correction of low-quality ratios in each individual dataset. The quality filters applied were the following: removal of half-tryptic peptides, removal of peptides with more than one tryptic miscleaved, removal of peptides with R=20 and only a single MS2 event triggered during the elution of the parent ion, removal of non-unique peptides. Further filtering was then performed as described below for each experiment type.
(§3) Samples (500 μL, 1.7 mg/mL) were treated with iodoacetamide desthiobiotin (IA-DTB, 5 μL of 10 mM stock in DMSO, final concentration: 100 μM) for 1 h at ambient temperature. Ice-cold MeOH (500 μL) and CHCl3 (200 μL) were then added, the mixture was vortexed and centrifuged (10,000 g, 10 min, 4° C.) to afford a protein disc at the interface of CHCl3 and aqueous layers. Both layers were aspirated without perturbing the disk, which was re-suspended in cold methanol (500 μL) and CHCl3 (200 μL) by sonication. The proteins were pelleted (10,000 g, 10 min, 4° C.), and the resulting pellets were re-suspended in a buffer (90 μL) containing 9M urea, 10 mM DTT and 50 mM triethylammonium bicarbonate ( 1/20 dilution of 1.0 M stock solution, pH 8.5) by thorough pipetting up and down. The resulting mixture was heated at 65° C. for 20 min. Sample was cooled to room temp, iodoacetamide (10 μL, 500 mM solution in H2O) was added, and the samples were incubated at 37° C. for 30 min with shaking.
(§4) At individual TMT experiment level, the following filters were applied to remove low-quality peptides: removal of non-unique peptides; removal of half-tryptic peptides; removal of peptides with more than one internal miscleaved site; removal of peptides with low (<10,000) sum of reporter ion intensities for control channels, and peptides with high variation between the replicate control channels (coefficient of variance >0.5). R values (compound-treated vs. DMSO-treated) for each peptide entry were calculated using the reporter ion intensities of DMSO and compound treated TMT channels for each treatment group with a maximum ratio cap of 20. […]

Assay [2] addresses T2, CBLB E3 ubiquitin-protein ligase CBL-B C686 (Q13191) (Homo sapiens, UniProt Q13191).
T2 construct: endogenous in cells; host or cells: primary human T cells
As to the method: as §1, §2, §3, §4

Assay [3] addresses T3, JAK1 Tyrosine-protein kinase JAK1 C810, C817 (P23458) (Homo sapiens, UniProt P23458).
T3 construct: endogenous in cells; host or cells: primary human T cells
As to the method:
as §1, §2, §3, §4

For assay [4], the target named is T4, MAPK9 Mitogen-activated protein kinase 9 C177 (P45984) (Homo sapiens, UniProt P45984).
T4 construct: endogenous in cells; host or cells: primary human T cells
Particulars: 100. On the procedure: as §1, §2, §3, §4

Assay [5] has as its target T5, PDIA3 Protein disulfide-isomerase A3 C57, C60 (P30101) (Homo sapiens, UniProt P30101).
T5 construct: endogenous in cells; host or cells: primary human T cells
T5 sequence (P30101 25-505): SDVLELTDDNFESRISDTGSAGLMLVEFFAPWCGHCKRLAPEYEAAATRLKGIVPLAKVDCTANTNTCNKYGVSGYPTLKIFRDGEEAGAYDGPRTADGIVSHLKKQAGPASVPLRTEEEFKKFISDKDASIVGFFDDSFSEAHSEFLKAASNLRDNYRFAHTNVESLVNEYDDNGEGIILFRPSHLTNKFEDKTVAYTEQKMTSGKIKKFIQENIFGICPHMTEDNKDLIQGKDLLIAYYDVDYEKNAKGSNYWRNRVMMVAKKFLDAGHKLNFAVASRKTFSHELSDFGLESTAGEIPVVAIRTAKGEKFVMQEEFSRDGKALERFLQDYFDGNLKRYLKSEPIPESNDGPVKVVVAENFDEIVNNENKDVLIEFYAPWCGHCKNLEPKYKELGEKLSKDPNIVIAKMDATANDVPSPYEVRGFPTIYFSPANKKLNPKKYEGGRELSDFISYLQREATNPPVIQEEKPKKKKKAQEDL
On the procedure: as §1, §2, §3, §4

Assay [6] concerns the target T6, PFKFB3 6-phosphofructo-2-kinase/fructose-2,6-bisphosphatase 3 C440 (Q16875) (Homo sapiens, UniProt Q16875).
T6 construct: endogenous in cells; host or cells: primary human T cells
Conditions: 100. On the procedure:
as §1, §2, §3, §4

T2 sequence (Q13191 whole entry): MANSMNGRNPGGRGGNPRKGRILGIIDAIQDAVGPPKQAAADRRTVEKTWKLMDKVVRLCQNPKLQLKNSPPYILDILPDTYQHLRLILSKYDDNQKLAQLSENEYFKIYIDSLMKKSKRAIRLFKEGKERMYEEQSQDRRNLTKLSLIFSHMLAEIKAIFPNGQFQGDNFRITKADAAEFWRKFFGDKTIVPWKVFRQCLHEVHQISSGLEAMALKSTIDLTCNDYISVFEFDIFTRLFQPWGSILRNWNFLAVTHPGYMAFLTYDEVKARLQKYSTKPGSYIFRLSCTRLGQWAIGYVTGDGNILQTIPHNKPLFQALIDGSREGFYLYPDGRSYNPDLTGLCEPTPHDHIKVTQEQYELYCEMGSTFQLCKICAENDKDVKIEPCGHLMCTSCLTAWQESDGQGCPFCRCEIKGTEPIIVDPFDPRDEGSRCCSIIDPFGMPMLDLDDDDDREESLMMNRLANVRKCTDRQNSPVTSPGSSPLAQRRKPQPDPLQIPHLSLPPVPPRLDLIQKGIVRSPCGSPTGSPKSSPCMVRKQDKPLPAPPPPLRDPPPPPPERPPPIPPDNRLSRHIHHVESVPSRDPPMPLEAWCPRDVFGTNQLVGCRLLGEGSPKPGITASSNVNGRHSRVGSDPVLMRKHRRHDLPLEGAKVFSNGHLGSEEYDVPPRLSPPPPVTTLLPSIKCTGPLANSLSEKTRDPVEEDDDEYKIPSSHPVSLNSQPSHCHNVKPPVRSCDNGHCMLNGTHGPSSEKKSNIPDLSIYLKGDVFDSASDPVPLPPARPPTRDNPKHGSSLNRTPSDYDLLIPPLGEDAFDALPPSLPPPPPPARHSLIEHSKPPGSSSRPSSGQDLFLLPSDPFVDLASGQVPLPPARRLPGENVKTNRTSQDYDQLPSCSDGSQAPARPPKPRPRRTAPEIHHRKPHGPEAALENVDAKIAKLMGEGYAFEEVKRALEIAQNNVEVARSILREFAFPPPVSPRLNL
T3 sequence (P23458 whole entry): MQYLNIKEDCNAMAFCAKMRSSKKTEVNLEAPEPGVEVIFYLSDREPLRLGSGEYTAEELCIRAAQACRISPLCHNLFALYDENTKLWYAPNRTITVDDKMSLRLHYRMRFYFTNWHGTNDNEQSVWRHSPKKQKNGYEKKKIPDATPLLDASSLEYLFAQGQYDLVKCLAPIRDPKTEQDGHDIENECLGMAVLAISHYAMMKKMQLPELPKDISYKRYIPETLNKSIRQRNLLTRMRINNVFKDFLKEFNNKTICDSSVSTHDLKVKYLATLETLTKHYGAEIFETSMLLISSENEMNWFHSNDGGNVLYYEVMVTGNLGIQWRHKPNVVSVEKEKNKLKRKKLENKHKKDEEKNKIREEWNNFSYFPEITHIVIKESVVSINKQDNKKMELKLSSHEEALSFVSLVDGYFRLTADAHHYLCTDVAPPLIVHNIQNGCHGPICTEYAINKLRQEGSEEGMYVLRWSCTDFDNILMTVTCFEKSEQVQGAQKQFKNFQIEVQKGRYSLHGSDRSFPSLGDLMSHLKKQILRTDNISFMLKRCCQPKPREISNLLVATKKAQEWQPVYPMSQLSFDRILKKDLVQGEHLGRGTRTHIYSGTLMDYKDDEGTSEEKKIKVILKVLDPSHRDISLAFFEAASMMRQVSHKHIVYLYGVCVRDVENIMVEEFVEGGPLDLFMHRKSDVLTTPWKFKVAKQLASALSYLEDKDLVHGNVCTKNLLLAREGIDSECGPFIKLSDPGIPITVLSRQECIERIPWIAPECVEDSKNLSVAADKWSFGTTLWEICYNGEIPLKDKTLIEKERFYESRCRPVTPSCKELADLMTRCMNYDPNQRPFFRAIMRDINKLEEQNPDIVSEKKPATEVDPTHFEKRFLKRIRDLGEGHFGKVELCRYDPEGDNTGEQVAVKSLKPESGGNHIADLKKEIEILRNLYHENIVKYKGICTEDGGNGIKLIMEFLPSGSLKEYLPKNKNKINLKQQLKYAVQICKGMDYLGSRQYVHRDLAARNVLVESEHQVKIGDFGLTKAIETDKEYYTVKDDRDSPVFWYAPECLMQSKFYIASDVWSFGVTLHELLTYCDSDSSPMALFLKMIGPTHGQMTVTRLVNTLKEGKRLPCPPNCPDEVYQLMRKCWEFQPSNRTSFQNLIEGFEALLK
T6 sequence (Q16875 whole entry, one chain of several): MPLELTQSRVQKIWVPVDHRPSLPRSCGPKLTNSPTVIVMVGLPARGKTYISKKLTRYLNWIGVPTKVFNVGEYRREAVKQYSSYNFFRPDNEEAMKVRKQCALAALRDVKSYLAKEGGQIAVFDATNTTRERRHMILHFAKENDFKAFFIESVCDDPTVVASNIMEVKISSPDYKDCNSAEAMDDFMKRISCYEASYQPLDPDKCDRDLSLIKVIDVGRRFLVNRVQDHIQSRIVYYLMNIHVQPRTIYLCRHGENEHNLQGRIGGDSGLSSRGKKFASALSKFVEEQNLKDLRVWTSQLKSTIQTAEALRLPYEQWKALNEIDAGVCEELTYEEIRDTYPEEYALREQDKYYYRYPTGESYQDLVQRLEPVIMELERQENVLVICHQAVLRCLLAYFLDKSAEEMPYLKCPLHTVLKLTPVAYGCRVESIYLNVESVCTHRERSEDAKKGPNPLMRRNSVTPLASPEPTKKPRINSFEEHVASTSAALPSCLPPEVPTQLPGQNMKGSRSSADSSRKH
T4 sequence (P45984 whole entry): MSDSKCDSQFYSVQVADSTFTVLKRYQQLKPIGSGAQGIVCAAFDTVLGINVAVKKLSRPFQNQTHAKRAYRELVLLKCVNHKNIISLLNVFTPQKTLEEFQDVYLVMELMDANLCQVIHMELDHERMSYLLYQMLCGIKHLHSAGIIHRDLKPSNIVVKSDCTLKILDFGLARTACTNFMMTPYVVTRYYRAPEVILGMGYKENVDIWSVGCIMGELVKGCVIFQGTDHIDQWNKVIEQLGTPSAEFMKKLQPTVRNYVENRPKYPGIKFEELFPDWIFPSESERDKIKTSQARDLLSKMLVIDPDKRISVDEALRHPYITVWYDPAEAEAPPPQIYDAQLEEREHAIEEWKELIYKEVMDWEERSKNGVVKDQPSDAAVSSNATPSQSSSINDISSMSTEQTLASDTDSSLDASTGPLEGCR

For the molecule `O=C(CCl)N1CCN(S(=O)(=O)c2ccc(-c3ccncc3)cc2)CC1` [Compound B9], the “Cysteine reactivity proteomic data” value is given as −38.85 in assay [1] (100 μM); 24.795 in assay [1] (500 μM); 25.6002 in assay [2] (100 μM); 76.6489 in assay [2] (500 μM); 18.7286 in assay [3] (100 μM); 90.3525 in assay [3] (500 μM). The “Cysteine reactivity proteomic data” value in assay [4] turned out to be 72.19; in assay [5] (100), 61.24; in assay [6], 62.11.
With `C=CC(=O)N(Cc1cccc(Cl)c1Cl)c1ccc(Oc2ccccc2)c(C(F)(F)F)c1` [Compound K4], the “Cysteine reactivity proteomic data” value in assay [1] (500 μM) is reported as −0.3282; in assay [2] (500 μM), 2.418; in assay [3] (500 μM), 39.2015; in assay [5] (500 μM), 7.07.
